# Test results: patent US20220396794A1, “APTAMERS AGAINST TRANSFERRIN RECEPTOR (TfR)” (APTERNA LIMITED, priority 2019, published 2022)
# Assays:
# C/EBPα mRNA [1] = experiment: Relative gene expression by qPCR in vitro, C/EBPα; type: cell-based, human
# Description: (§1) Relative gene expression analysis by qPCR in vitro. For analyzing gene activation and protein expression, PANC-1 cells were seeded in duplicate into 24-well plates at a density of 1×10^5 cells per well. tTR14 or control aptamer (IRRE) conjugated to C/EBPα-saRNAs were added directly to the cells, at a final concentration of 100 nM or 200 nM. The treatment was repeated 24 h later and cells were harvested at final incubation times of 48 or 72 h. Total RNA was extracted for reverse transcription using an RNeasy kit (Qiagen). Target cDNA amplification and real-time PCR was performed using a Bio-rad kit (SsoAdvanced™ Universal SYBR® Green Supermix). For normalization, the reference gene 18S was used. To determine gene expression in vivo samples, total RNA was extracted for reverse transcription (QuantiFast® Reverse transcription, Qiagen) and target cDNA was amplified using real-time PCR (QuantiFast® SYBR®Green Master mix). The cDNA probes used were purchased as prevalidated QuantiTect® SYBR probes from Qiagen. Real-time PCR was performed with validated QuantiTect® SYBR probes (Qiagen) or validated FAM probes (Applied Biosystems).
# p21 mRNA = experiment: Relative gene expression by qPCR in vitro, p21; type: cell-based, human
# Description: as §1
# PANC-1 cells = experiment: MTS assay, inhibition of cell proliferation; type: cell-based, human
# Description: MTS assay. […] Cells were treated with tTR14-C/EBPα and […] at 100 nM or 200 nM twice at 24-h intervals.
# PANC-Luc tumors = experiment: Liver-metastatic pancreatic cancer mouse model, combinational treatment with gemcitabine; type: in vivo, NOD/SCID mice; details: conjugate 1 nmol 3 times/week I.P. combined with gemcitabine 50 mg/kg 2 times/week I.V., compared with PBS
# Description: Intrahepatic pancreatic cancer liver-metastatic mouse model. To create an animal model harboring traceable tumors, a firefly luciferase fragment was inserted into the pLKO.1-AS3 backbone encoding the neo gene (National RNAi Core, Academia Sinica, Taiwan). One day before transduction, 293T cells were plated onto a 6-well plate. On the day of transduction, the medium was replaced with DMEM containing serial dilutions of the transfer plasmids and incubated for 5 h, then the medium was replaced. After two days, the culture medium containing recombinant lentiviral particles was obtained. PANC-1 cells were incubated with recombinant lentiviral particles for 24 h. […] Luciferase expression was assessed using the Luciferase Assay System. […] For the combinational treatment with gemcitabine, tumors were allowed to grow for 2 weeks after inoculation until they could be detected using an IVIS system, then mice were randomly divided into five groups of 10 animals/group. […] Tumor growth was monitored by evaluating bioluminescence using an IVIS 200 in vivo imaging platform (Caliper Life Sciences, Alameda, Calif.) and measuring the difference from before the first injection and one day after the last injection. […] The mice were imaged using the IVIS 200 and bioluminescent signals were analyzed using Living Image Software (Caliper Life Sciences, Alameda, Calif.). […]
# C/EBPα mRNA [2] = experiment: Analysis of gene expression in vivo in C57BL/6J mice, C/EBPα; details: B6 mice, 3 doses of 1 nmol via tail vein
# Description: as §1
# (§2) Analysis of gene expression in vivo. Female or male at 6 week C57BL/6J mice were purchased from the Jackson laboratory for three conjugates; TC, TCT, and TCUT. […]
# albumin mRNA = experiment: Analysis of gene expression in vivo in C57BL/6J mice, albumin; details: B6 mice, 3 doses of 1 nmol via tail vein, tissue harvesting on day 8
# Description: as §1, §2
# [3] = PANC-1, 100 nM, 48 or 72 h (FIG. 7)
# [4] = PANC-1, 72 h, 100 nM, compared to IRRE control group (FIG. 3)
substance,measurement,setting,value
"TCUT: TR14 ST1-3 with CEBPA sense, a 10-uracil spacer and albumin affinity tag (UUUAUUCACAUUUUUGAAUUGAGCGGUCAUUGUCACUGGUCUUUUUUUUUUUUN; listed as RNA, chemistry not given here)",upregulation of C/EBPα,C/EBPα mRNA [1]; [3],upregulation
same,mRNA expression of C/EBPα,C/EBPα mRNA [1]; [4],upregulation
same,upregulation of p21,p21 mRNA; [3],upregulation
same,mRNA expression of p21,p21 mRNA; [4],upregulation
same,cell proliferation by MTS assay,PANC-1 cells; [3],inhibited the cancer cell proliferation
same,cell proliferation by MTS assay,"PANC-1 cells; PANC-1, 72 h, compared to IRRE control group (FIG. 3)",inhibition of tumor cell proliferation
same,tumor burden by measuring photon increase,PANC-Luc tumors,significant reduction of tumor burden
same,mRNA levels of C/EBPα in brain tissue,C/EBPα mRNA [2]; tissue harvesting on day 8,no upregulation
same,mRNA levels of C/EBPα in liver,"C/EBPα mRNA [2]; tissue harvesting on day 8, compared to untreated group",increased
same,albumin mRNA levels in liver,albumin mRNA,none increased
